Laboratory results published in ChEMBL document CHEMBL1777759, “Synthesis of benzologues of Nitazoxanide and Tizoxanide: a comparative study of their in vitro broad-spectrum antiprotozoal activity” (Bioorg Med Chem Lett, 2011).

Experiments:
[1] = tested on: Leishmania mexicana; experiment: Antileishmanial activity against Leishmania mexicana MHOM/MX/ISETGS promastigotes after 72 hrs by neubauer chamber; assay type: functional, organism-based
[2] = tested on: Plasmodium berghei; experiment: Antimalarial activity against Plasmodium berghei schizonts isolated from parasitized erythrocytes infected Wistar rat measured 16 hrs post compound exposure; assay type: functional, organism-based
[3] = Cytotoxicity against african green monkey Vero cells after 72 hrs by MTT assay; assay type: cell-based; settings: chlorocebus sabaeus
[4] = tested on: Trypanosoma cruzi; experiment: Antitrypanosomal activity against Trypanosoma cruzi MHOM/MX/1994/Ninoa epimastigotes after 72 hrs by neubauer chamber; assay type: functional, organism-based
[5] = Selectivity index, ratio of CC50 for african green monkey Vero cells to IC50 for Leishmania mexicana MHOM/MX/ISETGS; assay type: functional
[6] = Selectivity index, ratio of CC50 for african green monkey Vero cells to IC50 for Trypanosoma cruzi MHOM/MX/1994/Ninoa; assay type: functional
[7] = Selectivity index, ratio of CC50 for african green monkey Vero cells to IC50 for Plasmodium berghei; assay type: functional
[8] = tested on: Giardia intestinalis; experiment: Antiprotozoan activity against Giardia intestinalis IMSS:0696:1 trophozoites after 48 hrs; assay type: functional, organism-based; settings: Giardia duodenalis, IMSS:0696:1, 48 h
[9] = tested on: Trichomonas vaginalis; experiment: Antiprotozoan activity against Trichomonas vaginalis GT3 trophozoites after 48 hrs; assay type: functional, organism-based; settings: GT3, 48 h
[10] = tested on: Entamoeba histolytica; experiment: Antiprotozoan activity against Entamoeba histolytica HM1-IMSS trophozoites after 48 hrs; assay type: functional, organism-based
[11] = Selectivity index, ratio of CC50 for african green monkey Vero cells to IC50 for Giardia intestinalis IMSS:0696:1; assay type: functional
[12] = Selectivity index, ratio of CC50 for african green monkey Vero cells to IC50 for Trichomonas vaginalis GT3; assay type: functional
[13] = Selectivity index, ratio of CC50 for african green monkey Vero cells to IC50 for Entamoeba histolytica HM1-IMSS; assay type: functional
[14] = tested on: Entamoeba histolytica; experiment: Ratio of IC50 for pentamidine to compound for Entamoeba histolytica HM1-IMSS; assay type: functional
[15] = tested on: Trypanosoma cruzi; experiment: Ratio of IC50 for benzanidazole to compound for Trypanosoma cruzi MHOM/MX/1994/Ninoa; assay type: functional

| Compound | IC50 [1] | IC50 [2] | IC50 [4] | IC50 [8] | IC50 [9] | IC50 [10] | CC50 at 72 h [3] | Ratio CC50/IC50 [5] | Ratio CC50/IC50 [6] | Ratio CC50/IC50 [7] | Ratio CC50/IC50 [11] | Ratio CC50/IC50 [12] | Ratio CC50/IC50 [13] | Ratio IC50 [14] | Ratio IC50 [15] |
| --- | --- | --- | --- | --- | --- | --- | --- | --- | --- | --- | --- | --- | --- | --- | --- |
| CC(=O)Oc1ccccc1C(=O)Nc1ncc([N+](=O)[O-])s1 [NITAZOXANIDE] | 6.18 µM | 3.89 µM | 18.7 µM | 1.21 µM | 0.068 µM | 0.504 µM | 833 µM | 135 | 44 | 214 | 686 | 12250 | 1653 |  |  |
| O=C(Nc1nc2ccc([N+](=O)[O-])cc2s1)c1ccccc1O | > 50 µM | 2.37 µM | > 50 µM | 0.59 µM | 2.15 µM | 8.02 µM | 607 µM |  |  | 256 | 1029 | 283 | 76 |  |  |
| CC(=O)Oc1ccccc1C(=O)Nc1nc2ccc([N+](=O)[O-])cc2s1 | 1.35 µM | 2.42 µM | 4.89 µM | 0.297 µM | 0.842 µM | 3.52 µM | 683 µM | 506 | 140 | 282 | 2300 | 811 | 194 | 10 | 7 |

More lines, main results first:

| IC50 [1] | IC50 [2] | IC50 [4] | IC50 [8] | IC50 [9] | IC50 [10] | Compound | CC50 at 72 h [3] | Ratio CC50/IC50 [5] | Ratio CC50/IC50 [6] | Ratio CC50/IC50 [7] | Ratio CC50/IC50 [11] | Ratio CC50/IC50 [12] | Ratio CC50/IC50 [13] | Ratio IC50 [14] | Ratio IC50 [15] |
| --- | --- | --- | --- | --- | --- | --- | --- | --- | --- | --- | --- | --- | --- | --- | --- |
| > 50 µM | 4.07 µM |  |  |  |  | O=C(Cn1ccnc1[N+](=O)[O-])NCc1ccccc1 [BENZNIDAZOLE] | 14 µM |  |  |  |  |  |  |  |  |
| > 50 µM | > 50 µM | > 50 µM |  |  |  | Cc1ncc([N+](=O)[O-])n1CCO [METRONIDAZOLE] | 387 µM |  |  |  |  |  |  |  |  |
| 6.19 µM | 5.24 µM | 17.5 µM | 0.716 µM | 0.211 µM | 1.23 µM | O=C(Nc1ncc([N+](=O)[O-])s1)c1ccccc1O [TIZOXANIDE] | 388 µM | 63 | 22 | 74 | 542 | 1839 | 316 |  |  |
|  | 2.94 µM | > 50 µM |  |  |  | N=C(N)c1ccc(OCCCCCOc2ccc(C(=N)N)cc2)cc1 [PENTAMIDINE] | 47 µM |  |  |  |  |  |  |  |  |
